Reference: ChEMBL document CHEMBL3132828, “In vitro anticancer activity and SAR studies of triazolyl aminoacyl(peptidyl) penicillins” (Medchemcomm, 2014)

How the values were obtained:
[1] = Selectivity ratio of IC50 for mouse NMuMG cells to IC50 for mouse B16F0 cells; type: ADME, cell-based; settings: NMuMG cells and B16F0 cells, read-out: Ratio IC50
[2] = Cytotoxicity against mouse B16F0 cells assessed as hexosaminidase level after 72 hrs by colorimetric analysis; type: functional, cell-based; settings: B16F0, 72 h
HeLa [3] = test: Cytotoxicity against human HeLa cells assessed as hexosaminidase level after 72 hrs by colorimetric analysis; type: functional, cell-based
[4] = Cytotoxicity against mouse NMuMG cells assessed as hexosaminidase level after 72 hrs by colorimetric analysis; type: cell-based
[5] = Selectivity ratio of IC50 for mouse NMuMG cells to IC50 for human HeLa cells; type: ADME, cell-based; settings: NMuMG cells and HeLa cells, read-out: Ratio IC50
HeLa [6] = test: Cytotoxicity against human HeLa cells assessed as growth inhibition at 20 uM after 72 hrs by colorimetric analysis relative to control; type: functional; settings: read-out: GI

Row | SMILES | selectivity ratio [1] | IC50 [2] | IC50 (HeLa [3]) | IC50 [4] | selectivity ratio [5] | inhibition of growth at 20 µM (HeLa [6])
1 | CC[C@H](C)[C@H](NC(=O)c1cn(C[C@@H]2N3C(=O)C(Br)(Br)[C@H]3SC2(C)C)nn1)C(=O)N[C@@H](Cc1ccccc1)C(=O)OC | 9 | 9 µM | 15 µM | 83 µM | 5.5 | 
2 | COC(=O)[C@H](Cc1ccccc1)NC(=O)[C@H](CC(C)C)NC(=O)c1cn(C[C@@H]2N3C(=O)C(Br)(Br)[C@H]3SC2(C)C)nn1 | 34 | 3 µM | 3 µM | 102 µM | 34 | 
3 | COC(=O)[C@H](Cc1ccccc1)NC(=O)[C@H](CC(C)C)NC(=O)c1cn(C[C@@H]2N3C(=O)C(Br)(Br)[C@H]3S(=O)(=O)C2(C)C)nn1 | 3.5 | 2 µM | 2 µM | 7 µM | 3.5 | 
4 | CC[C@H](C)[C@H](NC(=O)c1cn(C[C@@H]2N3C(=O)C(Br)(Br)[C@H]3SC2(C)C)nn1)C(=O)N[C@@H](Cc1ccc(O)cc1)C(=O)OC | 5 | 20 µM |  | 95 µM |  | < 50%
5 | COC(=O)[C@H](Cc1ccccc1)NC(=O)[C@H](CCSC)NC(=O)c1cn(C[C@@H]2N3C(=O)C(Br)(Br)[C@H]3SC2(C)C)nn1 | 30.5 | 9 µM | 10 µM | 275 µM | 27.5 | 
6 | COC(=O)[C@H](Cc1ccccc1)NC(=O)c1cn(C[C@@H]2N3C(=O)C(Br)(Br)[C@H]3SC2(C)C)nn1 | 12.5 | 10 µM | 14 µM | 125 µM | 9 | 
7 | COC(=O)[C@H](CC(C)C)NC(=O)[C@H](CC(C)C)NC(=O)c1cn(C[C@@H]2N3C(=O)C(Br)(Br)[C@H]3SC2(C)C)nn1 | 22 | 4 µM | 9 µM | 88 µM | 10 | 
8 | COC(=O)[C@H](Cc1ccccc1)NC(=O)[C@@H](NC(=O)c1cn(C[C@@H]2N3C(=O)C(Br)(Br)[C@H]3SC2(C)C)nn1)C(C)C | 19 | 9 µM | 16 µM | 170 µM | 10.6 | 
9 | COC(=O)[C@H](Cc1ccccc1)NC(=O)[C@@H]1CCCN1C(=O)c1cn(C[C@@H]2N3C(=O)C(Br)(Br)[C@H]3SC2(C)C)nn1 | 5 | 11 µM | 17 µM | 55 µM | 3 | 
10 | COC(=O)[C@H](Cc1ccc(O)cc1)NC(=O)[C@H](CC(C)C)NC(=O)c1cn(C[C@@H]2N3C(=O)C(Br)(Br)[C@H]3SC2(C)C)nn1 | > 7 | 22 µM |  | > 160 µM |  | < 50%
11 | COC(=O)[C@H](Cc1ccccc1)NC(=O)[C@H](CC(C)C)NC(=O)c1cn(C[C@@H]2N3C(=O)C[C@H]3SC2(C)C)nn1 | 35.5 | 10 µM | 13 µM | 355 µM | 27 | 
